Results reported in patent publication US20230414632A1, “INHIBITION OF THE HIV-1 REPLICATION BY COMPOUNDS DIRECTED AGAINST A NEW TARGET OF THE VIRAL CYCLE” (priority 2020, published 2023).

Tests used:
MT4 cells = assay: Cell survival / cellular toxicity in infected MT4 cells (flow cytometry); format: cell-based; conditions: up to 10 μM compound, day 5, MT4 cells
Description: For HIV-1 gfp+ vectors, viral replication is followed by GFP expression [i.e. the percentage and geometric mean fluorescence intensity (MFI) of GFP^+ cells]. Infectivity was estimated by flow cytometry using a FACSCalibur™ cytofluorometer (BD Biosciences). Toxicity is also assessed by flow cytometry (side and forward scatter).
At J0 (day zero) MT4 cells was used for infection with HIV gfp+ virus at multiplicity of infection (m.o.i.) reaching 0.1-0.2 (50 ng of p24^gag antigen per 10^6 cells). Two days post-infection (J2), MT4 cells are washed extensively (3 times with PBS) and resuspended using fresh RPMI medium (2×10^5 cells per ml) and plated into 6 well plates (2 ml per well) in the presence of compounds of formula I or II at various molecules concentrations. A control not infected with the virus (MT4 Ninf), or brought into contact with DMSO (inf DMSO, the solvent of compounds of formula I or II), or with dolutegravir (DTG) at 100 nM, a known inhibitor of the integrase, are conducted in parallel. At time J5 (day five), cells are then collected for cytometry analysis to quantify the production of viral particles and cell survival.

[1] = target: interaction between the HIV-1 integrase (IN) and the catalytic domain of the human mitochondrial lysyl-tRNA synthetase (mLysRS) (Homo sapiens (Human), UniProt P12497+Q15046); assay: HTRF assay of the mLysRS:IN interaction; format: binding, HIV-1 / human; conditions: compound from 17 to 666 μM
Description: Experiments were performed on the interaction between the HIV-1 integrase (IN) and the catalytic domain of the human mitochondrial lysyl-tRNA synthetase (mLysRS), which constitutes the main contribution to the Gag Pol:mLysRS interaction.
Homogeneous time-resolved fluorescence (HTRF) assays were performed in black, half-area, flat bottom, 96-well microplates (Costar #3694). Human mitochondrial LysRS with a C-terminal HA-tag (mLysRS-HA), diluted in HTRF buffer (10 mM Tris-HCl pH 7.5, 50 mM NaCl, 10 mM 2-mercaptoethanol, BSA at 1 mg/ml) was added (20 μl at a dimer concentration of 3.75 nM) in the wells of microplates placed on ice. Compounds of formula I or II (1 μl of a 10 mM solution in DMSO) were then added to the wells, and mixing was achieved by pipetting up and down 3-times 10 μl. […]
A 10 μl solution of KF prepared in HTRF buffer at a concentration of 250 mM was then added and mixing was achieved by pipetting up and down 3-times 20 μl. After centrifugation at 900 g for 3 min at 4° C., fluorescence of Eu^3+ cryptate and of XL665 was recorded at 620 nm (I620) and 665 nm (I665), respectively, after excitation of Eu^3+ cryptate at 317 nm, in an Infinite M1000 PRO microplate reader (TECAN). Results are expressed as the ratio of I665/I620. The HTRF signal corresponds to the ratio of fluorescence at 665 and 620 nm (I665/I620). […]

[2] = test system: HIV-1 gfp+ virus in MT4 cells; assay: Ex-vivo inhibition of HIV-1 replication (multi-cycle, HIV-1 gfp+ in MT4 cells, flow cytometry); format: cell-based; conditions: 10 μM compound, day 5, MT4 cells infected with HIV gfp+
Description: Ability of compounds of formula I or II to inhibit the HIV-1 replicative cycle ex vivo was conducted by methods commonly used in antiretroviral pharmacology.
MT4 cell line (Charneau et al. J. Virol. 1992, 66:2814) were maintained in RPMI 1640. HEK293T were maintained in Dulbecco's Modified Eagle Medium (DMEM). All media were supplemented with Glutamax and with 10% heat-inactivated fetal calf serum (Hyclone) and 1% penicillin/streptomycin (100 units/mL) (Gibco). All media were purchased from Gibco (Life Technologies Co.). All cell lines used here were incubated at 37° C., under 5% CO2 atmosphere. […]
For HIV-1 gfp+ vectors, viral replication is followed by GFP expression [i.e. the percentage and geometric mean fluorescence intensity (MFI) of GFP^+ cells]. […] Toxicity is also assessed by flow cytometry (side and forward scatter).
At J0 (day zero) MT4 cells was used for infection with HIV gfp+ virus at multiplicity of infection (m.o.i.) reaching 0.1-0.2 (50 ng of p24^gag antigen per 10^6 cells). […] At time J5 (day five), cells are then collected for cytometry analysis to quantify the production of viral particles and cell survival.

Chain of interaction between the HIV-1 integrase (IN) and the catalytic domain of the human mitochondrial lysyl-tRNA synthetase (mLysRS) (Q15046 whole entry, looked up, other chains not shown, the tested form may be a part): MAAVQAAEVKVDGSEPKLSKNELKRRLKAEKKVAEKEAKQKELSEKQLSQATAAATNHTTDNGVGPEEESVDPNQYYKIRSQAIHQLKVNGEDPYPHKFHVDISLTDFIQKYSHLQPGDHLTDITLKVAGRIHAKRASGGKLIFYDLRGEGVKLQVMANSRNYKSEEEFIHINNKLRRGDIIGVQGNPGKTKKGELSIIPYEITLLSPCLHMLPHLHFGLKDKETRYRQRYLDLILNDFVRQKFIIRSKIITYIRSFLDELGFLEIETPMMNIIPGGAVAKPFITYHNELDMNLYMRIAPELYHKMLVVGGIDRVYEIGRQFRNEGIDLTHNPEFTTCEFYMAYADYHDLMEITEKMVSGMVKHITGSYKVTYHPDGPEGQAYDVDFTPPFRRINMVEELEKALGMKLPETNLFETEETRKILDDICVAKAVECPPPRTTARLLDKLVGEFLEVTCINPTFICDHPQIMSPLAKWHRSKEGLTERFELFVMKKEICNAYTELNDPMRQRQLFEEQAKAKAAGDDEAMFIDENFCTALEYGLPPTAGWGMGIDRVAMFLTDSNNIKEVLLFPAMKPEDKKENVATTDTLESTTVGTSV

Row | Compound | cellular toxicity (MT4 cells) | IC50 [1] | production of viral particles [2]
1 | COCCOC(=O)C1=C(C)NC(C)=C(C(=O)OC/C=C/c2ccccc2)C1c1cccc([N+](=O)[O-])c1 (stereo not drawn) [I-b] | no cellular toxicity has been observed |  | 
2 | CC1=C(C(=O)OC(C)C)C(c2cccc([N+](=O)[O-])c2)C(C(=O)OC2CN(C(c3ccccc3)c3ccccc3)C2)=C(N)N1 (stereo not drawn) [I-d] |  | 400 ± 150 µM | 
3 | CN1CCCC(n2nc(Cc3ccc(Cl)cc3)c3ccccc3c2=O)CC1 (stereo not drawn) [II-a] | no cellular toxicity has been observed | 300 ± 50 µM | greatly reduced
4 | CCOC(=O)C1=C(C)NC(C)=C(C(=O)OCC)C1c1ccccc1/C=C/C(=O)OC(C)(C)C [I-a] | no cellular toxicity has been observed |  | 
